Reference: patent US9850256B2, “Antibacterial basic biaromatic derivatives with aminoalkoxy substitution” (priority 2014, dated 2017)
In brackets after ≈: the same amount, converted by molar mass.

What was measured:
Assay in all cases: Bacterial growth minimal inhibitory concentration (microdilution, cation-adjusted Mueller-Hinton Broth)
[1] = tested on: P. aeruginosa ATCC 27853; assay type: cell-based, Pseudomonas aeruginosa; conditions: Pseudomonas aeruginosa, ATCC27853; quinolone-sensitive strain
Summary of the method: (§1)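 Broth microdilution in cation-adjusted Mueller-Hinton Broth per CLSI M7-A7; MICs in mg/L. S. aureus A798 is methicillin- and quinolone-resistant, K. pneumoniae T6474 penicillin-, cephalosporin- and quinolone-resistant; E. coli ATCC25922 and P. aeruginosa ATCC 27853 are quinolone-sensitive.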

[2] = tested on: E. coli ATCC25922; assay type: cell-based; conditions: Escherichia coli, ATCC25922; quinolone-sensitive strain
Summary of the method: as §1

[3] = tested on: K. pneumoniae T6474; assay type: cell-based, Klebsiella pneumoniae; conditions: Klebsiella pneumoniae, T6474; multiply-resistant strain (penicillin-, cephalosporin- and quinolone-resistant)
Summary of the method: as §1

[4] = tested on: S. aureus A798; assay type: cell-based, Staphylococcus aureus; conditions: Staphylococcus aureus, A798; multiply-resistant strain (methicillin- and quinolone-resistant)
Summary of the method: as §1

Row | Structure (SMILES) | MIC [1] [µg/mL] | MIC [2] [µg/mL] | MIC [3] [µg/mL] | MIC [4] [µg/mL]
1 | CN1CC[C@H](Oc2cccc(-c3cncc(CNCC[C@H]4CN(c5ccc6c(n5)NC(=O)CO6)C(=O)O4)c3)n2)C1 [Example $138, 6-[(S)-5-(2-{[6-((S)-1-methyl-pyrrolidin-3-yloxy)-[2,3′]bipyridinyl-5′-ylmethyl]-amino}-ethyl)-2-oxo-oxazolidin-3-yl]-4H-pyrido[3,2-b][1,4]oxazin-3-one] | 2 (≈ 3.67 µM) | 1 (≈ 1.83 µM) | 2 (≈ 3.67 µM) | 2 (≈ 3.67 µM)
2 | CC(CN)Oc1cccc(-c2cccc(CNCC[C@H]3CN(c4ccc5c(n4)NC(=O)CO5)C(=O)O3)c2)c1 (mixture of isomers) [Example 6, 6-((S)-5-(2-(((3′-(((RS)-1-aminopropan-2-yl)oxy)-[1,1′-biphenyl]-3-yl)methyl)amino)ethyl)-2-oxooxazolidin-3-yl)-2H-pyrido[3,2-b][1,4]oxazin-3(4H)-one] | 4 | 4 | 4 | 4
3 | O=C1COc2ccc(N3C[C@H](CCNCc4cccc(-c5cc(OC6CNC6)cnn5)c4)OC3=O)nc2N1 [Example $114, 6-[(S)-5-(2-{3-[5-(azetidin-3-yloxy)-pyridazin-3-yl]-benzylamino}-ethyl)-2-oxo-oxazolidin-3-yl]-4H-pyrido[3,2-b][1,4]oxazin-3-one] | 1 (≈ 1.93 µM) | 4 (≈ 7.73 µM) | 8 (≈ 15.5 µM) | 16 (≈ 30.9 µM)
4 | COc1cc(OCCN)cc(-c2cccc(CNCC[C@H]3CN(c4ccc5c(n4)NC(=O)CO5)C(=O)O3)c2)n1 [Example $161, 6-[(S)-5-(2-{3-[4-(2-amino-ethoxy)-6-methoxy-pyridin-2-yl]-benzylamino}-ethyl)-2-oxo-oxazolidin-3-yl]-4H-pyrido[3,2-b][1,4]oxazin-3-one] | 1 (≈ 1.87 µM) | 0.5 (≈ 0.935 µM) | 1 (≈ 1.87 µM) | 0.5 (≈ 0.935 µM)
5 | CN1CC[C@H](Oc2cncc(-c3ccnc(CNCC[C@H]4CN(c5ccc6c(n5)NC(=O)CO6)C(=O)O4)c3)n2)C1 [Example $148, 6-{(S)-5-[2-({4-[6-((S)-1-methyl-pyrrolidin-3-yloxy)-pyrazin-2-yl]-pyridin-2-ylmethyl}-amino)-ethyl]-2-oxo-oxazolidin-3-yl}-4H-pyrido[3,2-b][1,4]oxazin-3-one] | 1 (≈ 1.83 µM) | 1 (≈ 1.83 µM) | 1 (≈ 1.83 µM) | 1 (≈ 1.83 µM)

Further lines, results first:

Row | MIC [1] [µg/mL] | MIC [2] [µg/mL] | MIC [3] [µg/mL] | MIC [4] [µg/mL] | Structure (SMILES)
6 | 1 (≈ 1.98 µM) | 4 (≈ 7.91 µM) | 16 (≈ 31.6 µM) | 8 (≈ 15.8 µM) | NCCOc1ccnc(-c2ccnc(CNCC[C@H]3CN(c4ccc5c(n4)NC(=O)CO5)C(=O)O3)c2)c1 [Example $157, 6-[(S)-5-(2-{[4-(2-amino-ethoxy)-[2,4′]bipyridinyl-2′-ylmethyl]-amino}-ethyl)-2-oxo-oxazolidin-3-yl]-4H-pyrido[3,2-b][1,4]oxazin-3-one]
7 | 0.25 (≈ 0.495 µM) | 0.5 (≈ 0.991 µM) | 1 (≈ 1.98 µM) | 0.25 (≈ 0.495 µM) | NCCOc1cccc(-c2cccc(CNCC[C@H]3CN(c4ccc5c(n4)NC(=O)CO5)C(=O)O3)c2)n1 [Example 8, 6-[(S)-5-(2-{3-[6-(2-amino-ethoxy)-pyridin-2-yl]-benzylamino}-ethyl)-2-oxo-oxazolidin-3-yl]-4H-pyrido[3,2-b][1,4]oxazin-3-one]
8 | 0.5 (≈ 0.913 µM) | 1 (≈ 1.83 µM) | 2 (≈ 3.65 µM) | 1 (≈ 1.83 µM) | NCCNCCOc1cccc(-c2cccc(CNCC[C@H]3CN(c4ccc5c(n4)NC(=O)CO5)C(=O)O3)c2)n1 [Example $156, 6-{(S)-5-[2-(3-{6-[2-(2-amino-ethylamino)-ethoxy]-pyridin-2-yl}-benzylamino)-ethyl]-2-oxo-oxazolidin-3-yl}-4H-pyrido[3,2-b][1,4]oxazin-3-one]
